Reference: patent publication US7157256B2, “Method for producing para-hydroxystyrene and other multifunctional aromatic compounds using two-phase extractive fermentation” (E. I. du Pont de Nemours and Company, priority 2003, dated 2007)
Values joined by “and” are separate entries in the source; they are usually repeats but may differ in a detail not shown here. Identical values can stand only once.

How the values were obtained:
Type in all cases: cell-based
[1] = tested on: P. putida NCIMB 9866; experiment: Effect of pHCA on the growth of Pseudomonas putida NCIMB 9866; conditions: pHCA 25 g/L
Protocol: (§1) Liquid cultures of these strains were grown in 10 mL of LB medium containing 0.25% glucose and 10 mM MgSO4 in 50 mL screw-capped, glass tubes at 30° C. and 200 rpm in an incubator shaker. In all subsequent media, pHCA was added from a 60 g/L stock solution, which was adjusted to pH 7.0 using KOH and then filter-sterilized. Samples of each culture were streaked on LB agar plates containing 0.25% glucose, 10 mM MgSO4 and 30 g/L pHCA and grown at 30° C. Individual colonies taken from these plates were grown to stationary phase at 30° C. in 10 mL of LB medium containing 0.5% glucose, 10 mM MgSO4 and 25 g/L pHCA in 50 mL screw-capped, glass tubes. These stationary phase cultures were diluted 1:25 in fresh LB medium containing 0.5% glucose, 10 mM MgSO4 and either 0 or 25 g/L pHCA and grown in 50 mL screw-capped, glass tubes at 30° C. and 200 rpm in an incubator shaker. Cell growth in these cultures was monitored by taking aliquots and measuring the OD at 600 nm of the culture or dilutions of the culture, which were made with LB medium. These OD measurements were used to calculate the doubling time and growth rate as a percentage of growth observed in test medium without pHCA.

[2] = tested on: E. coli TY1 (DGL430); experiment: Effect of pHCA and pHS on growth and fermentation of E. coli, shake flasks
Protocol: This study was done using E. coli TY1 (DGL430), a tyrosine overproducing strain obtained from OmniGene Bioproducts, Inc. (Cambridge, Mass.). This strain also produces phenylalanine. The seed culture of this strain was propagated in a medium consisting of MgSO4.7H2O (0.5 g/L), (NH4)2SO4 (4 g/L), MOPS (20.9 g/L) and 10 mL of phosphate solution. The pH of the seed medium was adjusted to pH 6.8 and then the medium was steam-sterilized. The phosphate solution contained KH2PO4 (57.3 g/L) and K2HPO4 (110.2 g/L) and was adjusted to pH 6.8. The following solutions were then aseptically added to the seed medium to give the final concentration given in parentheses: thiamine (1 mg/L), glucose (1 g/L), lactose (15 g/L), 5 mL of a trace element solution, and tetracycline (5 mg/L). The trace element solution contained citric acid (10 g/L), CaCl2.2H2O (1.5 g/L), FeSO4.7H2O (5 g/L), ZnSO4.7H2O (0.39 g/L) and CuSO4.5H2O (0.38 g/L). The seed medium was inoculated from a frozen pre-seed culture and was grown in 250 mL baffled flasks in an Innova 4000 incubator shaker (New Brunswick Scientific Co., Edison, N.J.), incubated at 35° C. and 300 rpm for 12–16 h. One milliliter of this seed culture was used to inoculate each of the test cultures.
The test medium was 50 mL of an aqueous solution containing: (NH4)2SO4 (4 g), 1 mL of phosphate solution, MgSO4.7H2O (0.5 g), and MOPS (20.9 g), with the pH adjusted to 7.0. After sterilization of this medium, thiamine (1 mg/L), 5 mL of trace element solution, glucose (2 g/L), lactose (15 g/L), IPTG (0.5 mM), and tetracycline (10 mg/L) were aseptically added to give the final concentration given in parentheses. The 250 mL baffled flasks containing 50 mL of the test medium were inoculated with the seed culture and were incubated at 35° C. and 300 rpm for 42 h in the incubator shaker. Samples of the culture were taken at various times and the optical density at 550 nm (OD550) was measured spectrophotometrically. The pH of these samples was also measured. After completion of the fermentation, the tyrosine and phenylalanine concentrations in the culture were measured using HPLC, as described supra.
This experiment was repeated using pHS in place of pHCA.

[3] = tested on: P. putida KT2440; experiment: Effect of pHCA on the growth of Pseudomonas putida KT2440; conditions: pHCA 25 g/L
Protocol: as §1

[4] = adapted cells, LB medium, 30° C.
[5] = percentage of growth without pHCA

With `O=C(O)C=Cc1ccc(O)cc1` [pHCA, para-hydroxycinnamic acid] as the molecule, how does the “Doubling Time” value [1, 4] read?
Its value is 105 min.

What about the “Growth Rate, %” value [1, 5] of the same molecule?
The value was 18%.

And the “OD 550” value ([2]; 17.5 h, pHCA added 1.00 g/L (as sodium pHCA))?
Its value is 2.47 and 2.41.

And the “OD 550” value ([2]; 17.5 h, pHCA added 2.00 g/L)?
Its value is 1.49 and 1.27.

What about the “OD 550” value ([2]; 17.5 h, pHCA added 4.00 g/L) of the same molecule?
The value was 0.20 and 0.22.

And the “OD 550” value ([2]; 17.5 h, pHCA added 8.00 g/L)?
Its value is 0.15.

What about the “OD 550” value ([2]; 17.5 h, pHCA added 16.00 g/L) of the same molecule?
Its value is 0.19 and 0.13.

What about the “OD 550” value ([2]; 29 h, pHCA added 1.00 g/L) of the same molecule?
Its value is 3.22 and 3.57.

And the “OD 550” value ([2]; 29 h, pHCA added 2.00 g/L)?
Its value is 1.77 and 1.47.

And the “OD 550” value ([2]; 29 h, pHCA added 4.00 g/L)?
Its value is 1.21 and 1.61.

What about the “OD 550” value ([2]; 29 h, pHCA added 8.00 g/L) of the same molecule?
The value was 0.16.

And the “OD 550” value ([2]; 29 h, pHCA added 16.00 g/L)?
Its value is 0.21 and 0.13.

What about the “OD 550” value ([2]; 42 h, pHCA added 1.00 g/L) of the same molecule?
Its value is 3.37 and 3.48.

And the “OD 550” value ([2]; 42 h, pHCA added 2.00 g/L)?
The value was 1.62 and 1.53.

And the Phe ([2]; 42 h, pHCA added 2.00 g/L)?
The Phe was 95 mg/L.

What about the Tyr ([2]; 42 h, pHCA added 2.00 g/L) of the same molecule?
Its Tyr is 100 mg/L and 105 mg/L.

And the “OD 550” value ([2]; 42 h, pHCA added 4.00 g/L)?
Its value is 1.54 and 1.55.

What about the Phe ([2]; 42 h, pHCA added 4.00 g/L) of the same molecule?
The Phe was 15 mg/L and 20 mg/L.

And the Tyr ([2]; 42 h, pHCA added 4.00 g/L)?
Its Tyr is 65 mg/L and 75 mg/L.

And the “OD 550” value ([2]; 42 h, pHCA added 8.00 g/L)?
The value was 0.18 and 0.17.

What about the Phe ([2]; 42 h, pHCA added 8.00 g/L) of the same molecule?
The Phe was 10 mg/L.

What about the Tyr ([2]; 42 h, pHCA added 8.00 g/L) of the same molecule?
Its Tyr is 15 mg/L and 25 mg/L.

And the “OD 550” value ([2]; 42 h, pHCA added 16.00 g/L)?
The value was 0.23 and 0.14.

What about the Phe ([2]; 42 h, pHCA added 16.00 g/L) of the same molecule?
Its Phe is 5 mg/L.

What about the Tyr ([2]; 42 h, pHCA added 16.00 g/L) of the same molecule?
Its Tyr is 0 mg/L.

What about the Phe ([2]; 42 h, phenylalanine in culture, pHCA added 1.00 g/L) of the same molecule?
The Phe was 150 mg/L and 155 mg/L.

What about the Tyr ([2]; 42 h, tyrosine in culture, pHCA added 1.00 g/L) of the same molecule?
Its Tyr is 210 mg/L and 190 mg/L.

What about the “concentration at which complete inhibition of growth / no growth was observed” value ([2]; E. coli TY1 shake flask) of the same molecule?
The value was 8 g/L.

And the “concentration that inhibited cell growth” value ([2]; E. coli TY1 shake flask)?
The value was 1 g/L.

What about the “Doubling Time” value [3, 4] of the same molecule?
The value was 79 min.

What about the “Growth Rate, %” value [3, 5] of the same molecule?
Its value is 21%.
